# Key:
# [1] = target: K-Ras^G12C : hSOS1 interaction (Homo sapiens, UniProt Q07889); experiment: Biochemical assay 1: K-Ras^G12C interaction assay with hSOS1 (HTRF); assay type: binding; conditions: for inhibition at 20 µM: read-out: Assay 1 (KRAS-SOS Interaction) activity expressed as % inhibition at 20 μM; for IC50: read-out: Assay 1 (KRAS-SOS Interaction) activity expressed as IC50
# [2] = target: human SOS1 (nucleotide exchange of K-Ras^G12C) (Homo sapiens, UniProt Q07889); experiment: Biochemical assay 2: K-Ras^G12C activation assay by hSOS1 at high GTP concentration (HTRF); conditions: high GTP; for inhibition at 20 µM: read-out: Assay 2 (KRAS-Activation by SOS high GTP) activity expressed as % inhibition at 20 μM; for IC50: read-out: Assay 2 (KRAS-Activation by SOS high GTP) activity expressed as IC50
# [3] = target: human SOS1 (loading of human K-Ras^G12C-GDP with fluorescent GTP-analog) (Homo sapiens, UniProt Q07889); experiment: Biochemical assay 3: K-Ras^G12C activation assay by hSOS1 (HTRF); conditions: no GTP; for inhibition at 20 µM: read-out: Assay 3 (KRAS-Activation by SOS no GTP) activity expressed as % inhibition at 20 μM; for IC50: read-out: Assay 3 (KRAS-Activation by SOS no GTP) activity expressed as IC50
SMILES,inhibition at 20 µM [1] [%],inhibition at 20 µM [2] [%],inhibition at 20 µM [3] [%],IC50 [1] [nM],IC50 [2] [nM],IC50 [3] [nM]
"CCCOc1ccc(Cl)cc1-c1ccc([C@H](C)Nc2nc(C)nc3cc(OC)c(OC)cc23)s1 (stereo in doubt) [Example 144, N-{1-[5-(5-chloro-2-propoxyphenyl)thiophen-2-yl]ethyl}-6,7-dimethoxy-2-methylquinazolin-4-amine]",30,12,19,–,–,–
"COc1cc2nc(C)nc(N[C@@H](C)c3ccc(-c4ccccc4Oc4ccccc4)s3)c2cc1OC (stereo in doubt) [Example 158, 6,7-dimethoxy-2-methyl-N-{1-[5-(2-phenoxyphenyl)thiophen-2-yl]ethyl}quinazolin-4-amine]",29,4,10,–,–,–
"COc1cc2nc(C)nc(N[C@@H](C)c3ccc(-c4ccc(NC(=O)OC(C)(C)C)cc4)s3)c2cc1OC (stereo in doubt) [Example 159, tert-butyl [4-(5-{1-[(6,7-dimethoxy-2-methylquinazolin-4-yl)amino]ethyl}thiophen-2-yl)phenyl]carbamate]",43,27,35,–,–,–
"COc1cc2nc(C)nc(N[C@@H](C)c3ccc(-c4ccc5c(c4)OCCN5C)s3)c2cc1OC (stereo in doubt) [Example 164, 6,7-dimethoxy-2-methyl-N-{1-[5-(4-methyl-3,4-dihydro-2H-1,4-benzoxazin-7-yl)thiophen-2-yl]ethyl}quinazolin-4-amine]",41,19,22,–,–,–
"COc1cc2nc(C)nc(N[C@@H](C)c3ccc(-c4cccc(OCC5CC5)c4)s3)c2cc1OC (stereo in doubt) [Example 170, N-[1-{5-[3-(cyclopropylmethoxy)phenyl]thiophen-2-yl}ethyl]-6,7-dimethoxy-2-methylquinazolin-4-amine]",45,7,15,–,–,–
"Cc1nc(N[C@H](C)c2ccccc2)c2cc(Br)ccc2n1 [Example 29, 6-bromo-2-methyl-N-[(1R)-1-phenylethyl]quinazolin-4-amine]",–,–,44,10200,10900,–
"Cc1nc(N[C@H](C)c2ccc(F)cc2)c2cc(Br)ccc2n1 [Example 31, 6-bromo-N-[(1R)-1-(4-fluorophenyl)ethyl]-2-methylquinazolin-4-amine]",–,–,49,8590,9510,–
"COc1cc2nc(C)nc(N[C@H](C)c3cccc(-c4cc(N)ccc4C)c3)c2cc1OC [Example 36, N-[(1R)-1-(5′-amino-2′-methylbiphenyl-3-yl)ethyl]-6,7-dimethoxy-2-methylquinazolin-4-amine]",–,–,–,542,1000,696
"COc1cc2nc(C)nc(N[C@H](C)c3cccc(-c4cncnc4)c3)c2cc1OC [Example 37, 6,7-dimethoxy-2-methyl-N-{(1R)-1-[3-(pyrimidin-5-yl)phenyl]ethyl}quinazolin-4-amine]",–,–,–,1540,1850,2690
"COc1cc2nc(C)nc(N[C@H](C)c3cccc(-c4cccc5cnccc45)c3)c2cc1OC [Example 39, N-{(1R)-1-[3-(isoquinolin-5-yl)phenyl]ethyl}-6,7-dimethoxy-2-methylquinazolin-4-amine]",–,–,–,1460,1830,3050
"COc1cc2nc(C)nc(N[C@H](C)c3cccc(-c4c(F)ccc(C)c4Cl)c3)c2cc1OC [Example 40, N-[(1R)-1-(2′-chloro-6′-fluoro-3′-methylbiphenyl-3-yl)ethyl]-6,7-dimethoxy-2-methylquinazolin-4-amine]",–,–,–,3850,1750,4550
"COc1cc2nc(C)nc(N[C@H](C)c3cccc(-c4cncc(C)c4)c3)c2cc1OC [Example 41, 6,7-dimethoxy-2-methyl-N-{(1R)-1-[3-(5-methylpyridin-3-yl)phenyl]ethyl}quinazolin-4-amine]",–,–,–,972,1400,1670
"COc1cc2nc(C)nc(N[C@H](C)c3cccc(-c4cccc(-c5nnc(C)o5)c4)c3)c2cc1OC [Example 55, 6,7-dimethoxy-2-methyl-N-{(1R)-1-[3′-(5-methyl-1,3,4-oxadiazol-2-yl)biphenyl-3-yl]ethyl}quinazolin-4-amine]",–,–,–,674,629,724
"COc1cc2nc(C)nc(N[C@H](C)c3cccc(-c4cncc(S(C)(=O)=O)c4)c3)c2cc1OC [Example 56, 6,7-dimethoxy-2-methyl-N-[(1R)-1-{3-[5-(methylsulfonyl)pyridin-3-yl]phenyl}ethyl]quinazolin-4-amine]",–,–,–,1470,1790,2560
"COc1cc2nc(C)nc(N[C@H](C)c3cccc(-c4ccc5c(c4)CC(=O)N5)c3)c2cc1OC [Example 57, 5-(3-{(1R)-1-[(6,7-dimethoxy-2-methylquinazolin-4-yl)amino]ethyl}phenyl)-1,3-dihydro-2H-indol-2-one]",–,–,–,414,401,629
"COc1cc2nc(C)nc(N[C@H](C)c3cccc(C4CC4(C)C)c3)c2cc1OC (stereo partly drawn) [Example 58, N-{(1R)-1-[3-(2,2-dimethylcyclopropyl)phenyl]ethyl}-6,7-dimethoxy-2-methylquinazolin-4-amine]",–,–,–,1770,1640,3110
"COc1cc2nc(C)nc(N[C@H](C)c3cccc(-c4ccc(-c5nnc(C)o5)cc4)c3)c2cc1OC [Example 59, 6,7-dimethoxy-2-methyl-N-{(1R)-1-[4′-(5-methyl-1,3,4-oxadiazol-2-yl)biphenyl-3-yl]ethyl}quinazolin-4-amine]",–,–,–,1590,770,965
"COc1cc2nc(C)nc(N[C@H](C)c3cccc(-c4cnc5[nH]ccc5c4)c3)c2cc1OC [Example 60, 6,7-dimethoxy-2-methyl-N-{(1R)-1-[3-(1H-pyrrolo[2,3-b]pyridin-5-yl)phenyl]ethyl}quinazolin-4-amine]",–,–,–,585,448,1040
"COc1cc2nc(C)nc(N[C@H](C)c3cccc(-c4cccc(S(N)(=O)=O)c4)c3)c2cc1OC [Example 61, 3′-{(1R)-1-[(6,7-dimethoxy-2-methylquinazolin-4-yl)amino]ethyl}biphenyl-3-sulfonamide]",–,–,–,374,717,895
"COc1cc2nc(C)nc(N[C@H](C)c3cccc(-c4cnc(N)nc4)c3)c2cc1OC [Example 62, N-{(1R)-1-[3-(2-aminopyrimidin-5-yl)phenyl]ethyl}-6,7-dimethoxy-2-methylquinazolin-4-amine]",–,–,–,1260,2770,2630
"COc1cc2nc(C)nc(N[C@H](C)c3cccc(/C=C/C4CC4)c3)c2cc1OC [Example 63, N-[(1R)-1-{3-[(E)-2-cyclopropylethenyl]phenyl}ethyl]-6,7-dimethoxy-2-methylquinazolin-4-amine]",–,–,–,1130,1800,1880
"CCOCc1ccccc1-c1cccc([C@@H](C)Nc2nc(C)nc3cc(OC)c(OC)cc23)c1 [Example 64, N-{(1R)-1-[2′-(ethoxymethyl)biphenyl-3-yl]ethyl}-6,7-dimethoxy-2-methylquinazolin-4-amine]",–,–,–,1400,1960,2210
"COc1cc(F)cc(-c2cccc([C@@H](C)Nc3nc(C)nc4cc(OC)c(OC)cc34)c2)c1 [Example 65, N-[(1R)-1-(3′-fluoro-5′-methoxybiphenyl-3-yl)ethyl]-6,7-dimethoxy-2-methylquinazolin-4-amine]",–,–,–,5760,8340,13500
"COc1ccc2oc(-c3cccc([C@@H](C)Nc4nc(C)nc5cc(OC)c(OC)cc45)c3)cc2c1 [Example 66, 6,7-dimethoxy-N-{(1R)-1-[3-(5-methoxy-1-benzofuran-2-yl)phenyl]ethyl}-2-methylquinazolin-4-amine]",–,–,–,3460,4550,6600
"CCCCOc1cccc(F)c1-c1cccc([C@@H](C)Nc2nc(C)nc3cc(OC)c(OC)cc23)c1 [Example 67, N-[(1R)-1-(2′-butoxy-6′-fluorobiphenyl-3-yl)ethyl]-6,7-dimethoxy-2-methylquinazolin-4-amine]",–,–,54,9980,19600,–
"COc1cc2nc(C)nc(N[C@H](C)c3cccc(-c4ccc(C(C)(C)C#N)cc4)c3)c2cc1OC [Example 69, 2-(3′-{(1R)-1-[(6,7-dimethoxy-2-methylquinazolin-4-yl)amino]ethyl}biphenyl-4-yl)-2-methylpropanenitrile]",–,–,–,3920,5410,9070
"COc1cc2nc(C)nc(N[C@H](C)c3cccc(-c4cccc(CNS(C)(=O)=O)c4)c3)c2cc1OC [Example 71, N-[(3′-{(1R)-1-[(6,7-dimethoxy-2-methylquinazolin-4-yl)amino]ethyl}biphenyl-3-yl)methyl]methanesulfonamide]",–,–,–,393,643,680
"COc1cc2nc(C)nc(N[C@H](C)c3cccc(-c4ccc(CNS(C)(=O)=O)cc4)c3)c2cc1OC [Example 72, N-[(3′-{(1R)-1-[(6,7-dimethoxy-2-methylquinazolin-4-yl)amino]ethyl}biphenyl-4-yl)methyl]methanesulfonamide]",–,–,–,737,666,882

# Source: US20240083857A1, “2-Methyl-Quinazolines” (Bayer Pharma Aktiengesellschaft, priority 2017, published 2024)
